Reference: US20230033285A1, “Protease Inhibitors for Treatment of Coronavirus Infections” (The Scripps Research Institute, priority 2021, published 2023)

Each molecule was assayed on SARS-CoV-2 (assay: microbe, parasite or virus in culture). Conditions: Severe acute respiratory syndrome coronavirus 2, HeLa-ACE2, 24 h, read-out: EC50, μM (Hela).
Format: cell-based
In the case of `CC1(C)[C@@H]2[C@@H](C(=O)N[C@H](C#N)C[C@@H]3CCCNC3=O)N(C(=O)[C@@H](NC(=O)C(F)(F)F)C3CCOCC3)C[C@@H]21` [Compound 68, (1R,2S,5S)-N-((S)-1-cyano-2-((S)-2-oxopiperidin-3-yl)ethyl)-6,6-dimethyl-3-((S)-2-(tetrahydro-2H-pyran-4-yl)-2-(2,2,2-trifluoroacetamido)acetyl)-3-azabicyclo[3.1.0]hexane-2-carboxamide], the EC50 was > 1 µM.

Same assay, conditions: Severe acute respiratory syndrome coronavirus 2; HeLa-ACE2 cells infected with SARS-CoV-2, 24 h, immunofluorescence of infected cells; read-out: EC50, μM (Hela)
`CC(C)(C)NC(=O)C(=O)N1C[C@@H]2CCC[C@@H]2[C@H]1C(=O)N[C@@H](C[C@@H]1CCNC1=O)C(=O)CO` [Compound 31, (1S,3aR,6aS)-2-(2-(tert-butylamino)-2-oxoacetyl)-N-((S)-4-hydroxy-3-oxo-1-((S)-2-oxopyrrolidin-3-yl)butan-2-yl)octahydrocyclopenta[c]pyrrole-1-carboxamide] was tested, and the EC50 was > 1 µM. For `CC(C)C[C@H](NC(=O)Nc1ccccc1F)C(=O)N[C@@H](C[C@@H]1CCNC1=O)C(=O)CO` [Compound 10, (S)-2-(3-(2-fluorophenyl)ureido)-N-((S)-4-hydroxy-3-oxo-1-((S)-2-oxopyrrolidin-3-yl)butan-2-yl)-4-methylpentanamide], the EC50 was > 1 µM. `CC(C)(C)C[C@H](NC(=O)C(=O)Nc1cccc(C(F)(F)F)n1)C(=O)N[C@@H](C[C@@H]1CCCNC1=O)C(=O)CO` [Compound 112] showed an EC50 of 0.5 to 1 µM. With `N#C[C@H](C[C@@H]1CCNC1=O)NC(=O)[C@@H]1[C@H]2CCC[C@H]2CN1C(=O)C(=O)Nc1ccccc1F` [Compound 62, (1S,3aR,6aS)-N-((S)-1-cyano-2-((S)-2-oxopyrrolidin-3-yl)ethyl)-2-(2-((2-fluorophenyl)amino)-2-oxoacetyl)octahydrocyclopenta[c] pyrrole-1-carboxamide] the EC50 was > 1 µM. With `COc1cccc2[nH]c(C(=O)N[C@@H](CC(C)C)C(=O)N[C@@H](C[C@@H]3CCNC3=O)C(=O)COC(=O)C3CCC(N4CCCCC4)CC3)cc12` (stereo partly drawn) [Compound 124, (S)-3-((S)-2-(4-methoxy-1H-indole-2-carboxamido)-4-methylpentanamido)-2-oxo-4-((S)-2-oxopyrrolidin-3-yl)butyl 4-(piperidin-1-yl)cyclohexane-1-carboxylate] the EC50 was > 1 µM. Molecule `CC(C)C[C@H](NC(=O)c1cc(-c2ccccc2F)on1)C(=O)N[C@H](C=O)C[C@@H]1CCCNC1=O` [Compound 126, 5-(2-fluorophenyl)-N-((S)-4-methyl-1-oxo-1-(((S)-1-oxo-3-((S)-2-oxopiperidin-3-yl)propan-2-yl)amino)pentan-2-yl)isoxazole-3-carboxamide] has an EC50 of 0.05 to 0.2 µM. In the case of `CC(C)C[C@@H](O)C(=O)N[C@@H](Cc1cccc(F)c1)C(=O)N[C@@H](C[C@@H]1CCCNC1=O)C(=O)CO` [Compound 134, (R)-N-((S)-3-(3-fluorophenyl)-1-(((S)-4-hydroxy-3-oxo-1-((S)-2-oxopiperidin-3-yl)butan-2-yl)amino)-1-oxopropan-2-yl)-2-hydroxy-4-methylpentanamide], the EC50 was > 1 µM. In the case of `CC(C)CC(=O)OCC(=O)[C@H](C[C@@H]1CCNC1=O)NC(=O)[C@H](CC(C)C)NC(=O)C(=O)Nc1ccccc1F` [Compound 103, (S)-3-((S)-2-(2-((2-fluorophenyl)amino)-2-oxoacetamido)-4-methylpentanamido)-2-oxo-4-((S)-2-oxopyrrolidin-3-yl)butyl 3-methylbutanoate], the EC50 was 0.05 to 0.2 µM. For `CC(C)C[C@H](NC(=O)C(=O)Nc1ccccc1F)C(=O)N[C@H](C#N)C[C@@H]1CCNC1=O` [Compound 58], the EC50 was 0.5 to 1 µM. `COc1cccc2[nH]c(C(=O)N[C@@H](CC(C)C)C(=O)N[C@@H](C[C@@H]3CCCNC3=O)C(=O)CO)cc12` [Compound 129, N-((S)-1-(((S)-4-hydroxy-3-oxo-1-((S)-2-oxopiperidin-3-yl)butan-2-yl)amino)-4-methyl-1-oxopentan-2-yl)-4-methoxy-1H-indole-2-carboxamide] gave an EC50 of 0.5 to 1 µM. For `CC(C)C[C@H](NC(=O)C(=O)Nc1ccccc1F)C(=O)N[C@@H](C[C@@H]1CCCNC1=O)C(=O)COC(=O)OC(C)C` [Compound 107, (S)-3-((S)-2-(2-((2-fluorophenyl)amino)-2-oxoacetamido)-4-methylpentanamido)-2-oxo-4-((S)-2-oxopiperidin-3-yl)butyl isopropyl carbonate], the EC50 was < 0.05 µM. Work on `N#C[C@H](C[C@@H]1CCCNC1=O)NC(=O)[C@@H]1[C@H]2CCC[C@H]2CN1C(=O)C(=O)Nc1ccccc1F` [Compound 60, (1S,3aR,6aS)-N-((S)-1-cyano-2-((S)-2-oxopiperidin-3-yl)ethyl)-2-(2-((2-fluorophenyl)amino)-2-oxoacetyl)octahydrocyclopenta[c] pyrrole-1-carboxamide] yielded an EC50 of 0.5 to 1 µM. In the case of `CC(C)(C)C[C@H](NC(=O)C(=O)Nc1cccc(Cl)c1)C(=O)N[C@@H](CC1CCCNC1=O)C(=O)CO` (stereo partly drawn) [Compound 102, N^1-(3-chlorophenyl)-N^2-((S)-1-(((S)-4-hydroxy-3-oxo-1-((S)-2-oxopiperidin-3-yl)butan-2-yl)amino)-4,4-dimethyl-l-oxopentan-2-yl)oxalamide], the EC50 was < 0.05 µM. In the case of `CC(C)(C)C[C@H](NC(=O)C(=O)NC12CC(F)(C1)C2)C(=O)N[C@@H](C[C@@H]1CCNC1=O)C(=O)CO` [Compound 22, N^1-(3-fluorobicyclo[1.1.1]pentan-1-yl)-N^2-((S)-1-(((S)-4-hydroxy-3-oxo-1-((S)-2-oxopyrrolidin-3-yl)butan-2-yl)amino)-4,4-dimethyl-1-oxopentan-2-yl)oxalamide], the EC50 was 0.2 to 0.5 µM. `O=C(Nc1ccccc1F)C(=O)N[C@@H](CC1CCCCC1)C(=O)N[C@@H](C[C@@H]1CCCNC1=O)C(=O)CO` [Compound 24, N^1-((S)-3-cyclohexyl-1-(((S)-4-hydroxy-3-oxo-1-((S)-2-oxopiperidin-3-yl)butan-2-yl)amino)-1-oxopropan-2-yl)-N^2-(2-fluorophenyl)oxalamide] showed an EC50 of 0.05 to 0.2 µM. `CC(C)C[C@H](NC(=O)C(=O)Nc1ccccc1F)C(=O)N[C@@H](C[C@@H]1CCCNC1=O)C(=O)COC(=O)c1ccccc1C#N` [Compound 138, (S)-3-((S)-2-(2-((2-fluorophenyl)amino)-2-oxoacetamido)-4-methylpentanamido)-2-oxo-4-((S)-2-oxopiperidin-3-yl)butyl 2-cyanobenzoate] showed an EC50 of 0.05 to 0.2 µM. With `CC(C)C[C@H](NC(=O)C(=O)NC1(C)CC1)C(=O)N[C@H](C=O)C[C@@H]1CCNC1=O` [Compound 43, N^1-((S)-4-methyl-1-oxo-1-(((S)-1-oxo-3-((S)-2-oxopyrrolidin-3-yl)propan-2-yl)amino)pentan-2-yl)-N^2-(1-methylcyclopropyl)oxalamide] the EC50 was > 1 µM. `CCCCCCC(=O)OCC(=O)[C@H](C[C@@H]1CCNC1=O)NC(=O)[C@H](CC(C)C)NC(=O)C(=O)NC1CCCCC1` [Compound 18, (S)-3-((S)-2-(2-(cyclohexylamino)-2-oxoacetamido)-4-methylpentanamido)-2-oxo-4-((S)-2-oxopyrrolidin-3-yl)butyl heptanoate] gave an EC50 of 0.05 to 0.2 µM. `COc1cccc(NC(=O)C(=O)N[C@@H](CC(C)C)C(=O)N[C@@H](C[C@@H]2CCNC2=O)C(=O)CO)c1` [Compound 9] gave an EC50 of 0.05 to 0.2 µM. Molecule `CC(=O)OCC(=O)[C@H](C[C@@H]1CCCNC1=O)NC(=O)[C@H](CC(C)C)NC(=O)C(=O)Nc1ccccc1F` [Compound 105, (S)-3-((S)-2-(2-((2-fluorophenyl)amino)-2-oxoacetamido)-4-methylpentanamido)-2-oxo-4-((S)-2-oxopiperidin-3-yl)butyl acetate] has an EC50 of 0.05 to 0.2 µM. For `CC(C)C[C@H](NC(=O)C(=O)Nc1ccccc1F)C(=O)N[C@H](C=O)C[C@@H]1CCCNC1=O` [Compound 41, N^1-(2-fluorophenyl)-N^2-((S)-4-methyl-1-oxo-1-(((S)-1-oxo-3-((S)-2-oxopiperidin-3-yl)propan-2-yl)amino)pentan-2-yl)oxalamide], the EC50 was 0.05 to 0.2 µM. For `Cc1ccccc1NC(=O)C(=O)N[C@@H](Cc1ccccc1F)C(=O)N[C@@H](C[C@@H]1CCNC1=O)C(=O)CO` [Compound 20, N^1-((S)-3-(2-fluorophenyl)-1-(((S)-4-hydroxy-3-oxo-1-((S)-2-oxopyrrolidin-3-yl)butan-2-yl)amino)-1-oxopropan-2-yl)-N^2-(o-tolyl)oxalamide], the EC50 was > 1 µM. `CC(C)C[C@H](NC(=O)C(=O)NC(C)(C)C)C(=O)N[C@@H](C[C@@H]1CCCNC1=O)C(=O)CO` [Compound 115, N^1-(tert-butyl)-N^2-((S)-1-(((S)-4-hydroxy-3-oxo-1-((S)-2-oxopiperidin-3-yl)butan-2-yl)amino)-4-methyl-1-oxopentan-2-yl)oxalamide] was tested, and the EC50 was > 1 µM. In the case of `CC(C)(C)C[C@H](NC(=O)C(=O)Nc1cccc(C(F)(F)F)c1)C(=O)N[C@@H](CC1CCCNC1=O)C(=O)CO` (some centres unmarked) [Compound 99], the EC50 was < 0.05 µM. `CCCCCCC(=O)OCC(=O)[C@H](C[C@@H]1CCNC1=O)NC(=O)[C@H](CC1CCCCC1)NC(=O)C(=O)NC1CCCCC1` [Compound 19, (S)-3-((S)-3-cyclohexyl-2-(2-(cyclohexylamino)-2-oxoacetamido)propanamido)-2-oxo-4-((S)-2-oxopyrrolidin-3-yl)butyl heptanoate] showed an EC50 of 0.2 to 0.5 µM. `CC(C)C[C@H](NC(=O)C(=O)NC1CCCCC1)C(=O)N[C@H](C=O)C[C@@H]1CCNC1=O` [Compound 42, N^1-cyclohexyl-N^2-((S)-4-methyl-1-oxo-1-(((S)-1-oxo-3-((S)-2-oxopyrrolidin-3-yl)propan-2-yl)amino)pentan-2-yl)oxalamide] was tested, and the EC50 was 0.5 to 1 µM. `CC(C)(C)C[C@H](NC(=O)C(=O)NC(C)(C)C)C(=O)N[C@@H](C[C@@H]1CCCNC1=O)C(=O)CO` [Compound 89, N^1-(tert-butyl)-N^2-((S)-1-(((S)-4-hydroxy-3-oxo-1-((S)-2-oxopiperidin-3-yl)butan-2-yl)amino)-4,4-dimethyl-1-oxopentan-2-yl)oxalamide] gave an EC50 of 0.05 to 0.2 µM. For `Cc1cccc(C)c1NC(=O)C(=O)N[C@@H](CC(C)C)C(=O)N[C@@H](C[C@@H]1CCNC1=O)C(=O)CO` [Compound 12, N^1-(2,6-dimethylphenyl)-N^2-((S)-1-(((S)-4-hydroxy-3-oxo-1-((S)-2-oxopyrrolidin-3-yl)butan-2-yl)amino)-4-methyl-1-oxopentan-2-yl)oxalamide], the EC50 was > 1 µM.
